Assay results reported in the Kinase Knowledgebase extract (Sharma et al. 2016).

Experiments:
MAPK14 (human) = MAPK14 (human) (UniProt Q16539); assay: In vitro Inhibition of TNF-alpha Production in PBMC Cells
MAPK14 (BALB/cJ mice) = assay: In vivo Inhibition of LPS-induced TNF-alpha Production; details: dose or concentration not given here

Chain of MAPK14 (human) (Q16539 whole entry, looked up): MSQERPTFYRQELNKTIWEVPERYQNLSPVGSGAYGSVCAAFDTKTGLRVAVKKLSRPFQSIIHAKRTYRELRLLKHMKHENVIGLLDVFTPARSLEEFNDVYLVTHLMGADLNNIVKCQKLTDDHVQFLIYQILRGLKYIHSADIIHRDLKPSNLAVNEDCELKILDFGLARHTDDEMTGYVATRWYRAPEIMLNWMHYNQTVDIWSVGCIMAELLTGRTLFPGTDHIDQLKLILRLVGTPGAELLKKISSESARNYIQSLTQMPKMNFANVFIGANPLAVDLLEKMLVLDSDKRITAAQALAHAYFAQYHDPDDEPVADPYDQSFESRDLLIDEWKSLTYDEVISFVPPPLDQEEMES

Compound | IC50 (MAPK14 (human)) | inhibition (MAPK14 (BALB/cJ mice))
Cn1c(C(=O)OC(C)(C)C)c(-c2ccc(F)cc2)c(-c2ccncc2)c1N1CCNCC1 | 0.42 µM | 25%
CCCc1c(-c2ccnc(N[C@@H](C)COC)n2)c(-c2ccc(F)cc2)cn1CCN1CCOCC1 | 0.001 µM | -1%
Fc1ccc(-c2cn3c(c2-c2ccncc2)CNCC3)cc1 | 0.208 µM | 71%
CCOC(=O)c1c(-c2ccc(Br)cc2)c(-c2ccncc2)cn1C | 0.211 µM | 
CCCc1c(-c2ccnc(N[C@@H](C)c3ccccc3)n2)c(-c2ccc(F)cc2)cn1C(=O)OC(C)(C)C |  | -79%
O=C1CCn2cc(-c3ccncc3)c(-c3ccc(F)cc3)c21 | 0.138 µM | 
O=C1CCCn2c(NCCN3CCOCC3)c(-c3ccncc3)c(-c3ccc(F)cc3)c21 | 2.56 µM | 51%
COC(=O)c1c(-c2ccc(F)cc2)c(-c2ccncc2)c(-c2ccncc2)n1C |  | 51%
CN(Cc1ccccc1)Cc1[nH]cc(-c2ccc(F)cc2)c1-c1ccncc1 | 0.091 µM | 37%
O=C1CCCn2cc(-c3ccncc3)c(-c3ccc(F)cc3)c21 | 0.15 µM | 
CCCCNCc1c(-c2ccncc2)c(-c2ccc(F)cc2)cn1C | 1.08 µM | 
Cn1c(C(=O)c2ccccc2)c(-c2ccc(F)cc2)c(-c2ccncc2)c1N1CCNCC1 | 0.66 µM | 
CC(O)c1c(-c2ccc(F)cc2)c(-c2ccncc2)cn1C (stereo not drawn) | 1.45 µM | 
CCOC(=O)c1c(-c2ccc(F)cc2)c(-c2ccncc2)c(CCCOCc2ccccc2)n1C | 0.248 µM | 51%
COC(=O)c1c(-c2ccc(F)cc2)c(-c2ccncc2)c(N=C(c2ccccc2)c2ccccc2)n1C | 0.052 µM | -49%
OCc1c(-c2ccc(F)cc2)c(-c2ccncc2)cn1CCN1CCOCC1 | 0.277 µM | -50%
COC(=O)c1c(-c2ccc(F)cc2)c(-c2ccncc2)c(Nc2cccc(NC(C)=O)c2)n1C | 0.021 µM | 
COC(=O)C1CCn2c(NCCN3CCOCC3)c(-c3ccncc3)c(-c3ccc(F)cc3)c2C1=O (stereo not drawn) | 0.077 µM | 71%
COc1ccc(CNCc2[nH]cc(-c3ccncc3)c2-c2ccc(F)cc2)cc1 | 0.19 µM | -30%
C[C@H](Nc1nccc(-c2cn(CCN3CCOCC3)cc2-c2ccc(F)cc2)n1)c1ccccc1 | 0.004 µM | -21%
Cn1cc(-c2ccncc2)c(-c2ccc(F)cc2)c1-c1cnco1 | 0.059 µM | 53%
C[C@H](Nc1nccc(-c2c[nH]cc2-c2ccc(F)cc2)n1)c1ccccc1 | 0.003 µM | 
COC(=O)c1c(-c2ccc(F)cc2)c(-c2ccncc2)cn1CCN1CCOCC1 | 10 µM | 
COC(=O)c1c(-c2ccc(F)cc2)c(-c2ccncc2)c(NCc2cccc(OC)c2)n1C | 0.407 µM | 63%
CN(CCN1CCOCC1)c1c(-c2ccncc2)c(-c2ccc(F)cc2)cn1C | 0.117 µM | 
CCOC(=O)c1[nH]cc(-c2ccncc2)c1-c1cccc(C(F)(F)F)c1 | 0.096 µM | -8%
CN(C)CCn1cc(-c2ccncc2)c(-c2ccc(F)cc2)c1CO | 0.852 µM | 20%
CCOC(=O)c1[nH]cc(-c2ccncc2)c1-c1ccccc1 | 0.149 µM | 58%

Compound | IC50 (MAPK14 (human)) | inhibition (MAPK14 (BALB/cJ mice))
OCc1[nH]cc(-c2ccc(F)cc2)c1-c1ccncc1 | 0.101 µM | -72%
COC(=O)c1c(-c2ccc(F)cc2)c(-c2ccncc2)c(-c2cccc(NC(C)=O)c2)n1C | 0.002 µM | 59%
COC(=O)c1c(-c2ccc(F)cc2)c(-c2ccncc2)c(NCCCN2CCOCC2)n1C |  | 64%
Cn1cc(-c2ccncc2)c(-c2ccc(F)cc2)c1-c1ncc(-c2ccccc2)o1 | 1.03 µM | 
CON(C)C(=O)c1c(-c2ccc(F)cc2)c(-c2ccncc2)cn1C | 5.84 µM | 
CC(=O)N1CCN(c2c(-c3ccncc3)c(-c3ccc(F)cc3)c(-c3nnco3)n2C)CC1 |  | 19%
COC(=O)c1c(-c2ccc(F)cc2)c(-c2ccncc2)c(NCCN2CCNCC2)n1C |  | 77%
COC(=O)c1c(-c2ccc(F)cc2)c(-c2ccncc2)c(NCc2ccc(OC)cc2)n1C | 0.042 µM | 
COC(=O)c1c(-c2ccc(F)cc2)c(-c2ccncc2)cn1CCN(C)C |  | -32%
Cn1cc(-c2ccncc2)c(-c2ccc(F)cc2)c1C(=O)NCC(=O)c1ccccc1 | 0.157 µM | 
O=C1OCCn2cc(-c3ccncc3)c(-c3ccc(F)cc3)c21 | 0.16 µM | 
CN(C)C(=O)c1c(-c2ccc(F)cc2)c(-c2ccncc2)c(N2CCNCC2)n1C | 0.12 µM | 
Cn1cc(-c2ccncc2)c(-c2ccc(F)cc2)c1-c1nnco1 | 0.018 µM | 
COC(=O)c1c(-c2ccc(F)cc2)c(-c2ccncc2)c(NC2CCN(Cc3ccccc3)CC2)n1C | 1.31 µM | 
COC(=O)c1c(-c2cccc(F)c2)c(-c2ccncc2)cn1C | 0.064 µM | 
OCCNCc1[nH]cc(-c2ccc(F)cc2)c1-c1ccncc1 | 0.148 µM | 
CCCc1c(-c2ccnc(N[C@@H](C)COC)n2)c(-c2ccc(F)cc2)cn1C(=O)OC(C)(C)C | 0.05 µM | 
Cn1c(C#N)c(-c2ccc(F)cc2)c(-c2ccncc2)c1NCCN1CCOCC1 | 0.351 µM | 
COC(=O)CCCn1c(NCCN2CCOCC2)c(-c2ccncc2)c(-c2ccc(F)cc2)c1C(=O)OC | 0.029 µM | 
COC(=O)C1CCn2c(I)c(-c3ccncc3)c(-c3ccc(F)cc3)c2C1=O (stereo not drawn) |  | 15%
COC(=O)CCn1c(C#CCCO)c(-c2ccncc2)c(-c2ccc(F)cc2)c1C(=O)OC | 5.28 µM | 
N#Cc1[nH]cc(-c2ccncc2)c1-c1ccc(F)cc1 | 0.047 µM | 
Fc1ccc(-c2c[nH]c(CNCc3ccccc3)c2-c2ccncc2)cc1 | 0.006 µM | 
CCOC(=O)c1[nH]cc(-c2ccc(F)cc2)c1-c1ccncc1 | 0.145 µM | 
COC(=O)c1c(-c2ccc(F)cc2)c(-c2ccncc2)c(Nc2ccc3c(c2)N(C(C)=O)CC3)n1C | 0.65 µM | 
Cn1cc(-c2ccncc2)c(-c2ccc(F)cc2)c1C#N | 0.171 µM | 
Cn1c(CO)c(-c2ccc(F)cc2)c(-c2ccncc2)c1N1CCN(C(=O)OC(C)(C)C)CC1 |  | 83%

More lines, main results first:

IC50 (MAPK14 (human)) | Compound | inhibition (MAPK14 (BALB/cJ mice))
1.89 µM | Cn1c(Br)c(-c2ccncc2)c(-c2ccc(F)cc2)c1C(=O)OC(C)(C)C | -7%
0.069 µM | COC(=O)c1c(-c2ccc(F)cc2)c(-c2ccncc2)c(NCCN2CCSCC2)n1C | 
1.66 µM | COC(=O)c1c(-c2ccc(F)cc2)c(-c2ccncc2)c(N2CCC(NC(=O)OC(C)(C)C)C2)n1C (stereo not drawn) | 
1.98 µM | COC(=O)c1c(-c2ccc(F)cc2)c(-c2ccncc2)c(N2CCN(C(C)C)CC2)n1C | 
0.194 µM | COC(=O)c1c(-c2ccc(F)cc2)c(-c2ccncc2)cn1C(C)=O | -32.1%
10 µM | COC(=O)c1c(-c2ccncc2)c(-c2ccc(F)cc2)c(NCCN2CCOCC2)n1C | 91%
0.543 µM | CNC(=O)c1c(-c2ccc(F)cc2)c(-c2ccncc2)c(Br)n1C | 53%
0.005 µM | COC(=O)c1c(-c2ccc(F)cc2)c(-c2ccncc2)c(N=CN(C)C)n1C | 6%
0.12 µM | COC(=O)c1c(-c2ccc(F)cc2)c(-c2ccncc2)c(-c2ccc(N(C)C)cc2)n1C | -22%
0.005 µM | COC(=O)CN1CCN(c2c(-c3ccncc3)c(-c3ccc(F)cc3)c(C(=O)OC)n2C)CC1 | 26%
5.86 µM | COC(=O)c1c(-c2ccc(F)cc2)c(-c2ccncc2)c(N2CCN(S(C)(=O)=O)CC2)n1C | -29%
1.39 µM | COC(=O)c1c(-c2ccc(F)cc2)c(-c2ccncc2)c(NCCN2CCCC2)n1C | 
1.53 µM | COC(=O)c1c(-c2ccc(F)cc2)c(-c2ccncc2)c(N2CCN(C(C)=O)CC2)n1C | 57%
0.183 µM | COC(=O)c1c(-c2ccc(F)cc2)c(-c2ccncc2)c(N(C)CCN2CCSCC2)n1C | 
0.055 µM | COC(=O)c1c(-c2ccncc2)c(-c2ccc(F)cc2)cn1C | -56%
0.016 µM | CCOC(=O)c1c(-c2ccc(F)cc2)c(-c2ccncc2)c(N2CCNCC2)n1C | 79%
0.098 µM | COC(=O)c1c(-c2ccc(F)cc2)c(-c2ccncc2)c(NCCN(C)C)n1C | -43%
0.0077 µM | COC(=O)c1c(-c2ccc(F)cc2)c(-c2ccncc2)c(C#CCN2CCN(C)CC2)n1C | 57%
3.51 µM | COC(=O)c1c(-c2ccncc2)c(-c2ccc(F)cc2)c(N(C)CCN2CCOCC2)n1C | 

IC50 (MAPK14 (human)) | Compound | inhibition (MAPK14 (BALB/cJ mice))
0.086 µM | CCOC(=O)c1c(-c2ccc(F)cc2)c(-c2ccncc2)c(Br)n1C | 
0.573 µM | COC(=O)c1c(-c2ccc(F)cc2)c(-c2ccncc2)c(N2CCN(CC3CCCCC3)CC2)n1C | 
1.49 µM | COC(=O)c1c(-c2ccc(F)cc2)c(-c2ccncc2)c(NC(C)=O)n1C | 
0.105 µM | CCn1c(C(=O)OC)c(-c2ccc(F)cc2)c(-c2ccncc2)c1N(C)CCN1CCOCC1 | 
0.589 µM | CCCn1c(NCCN2CCOCC2)c(-c2ccncc2)c(-c2ccc(F)cc2)c1C(=O)OC | 
0.597 µM | CC(=O)c1c(-c2ccc(F)cc2)c(-c2ccncc2)cn1C | 
0.145 µM | COC(=O)c1c(-c2ccc(F)cc2)c(-c2ccncc2)c(NCCc2ccncc2)n1C | 
4.26 µM | COC(=O)c1c(-c2ccc(F)cc2)c(-c2ccncc2)c(N2CCN(C(=O)OC(C)(C)C)CC2)n1C | 
1.64 µM | COC(=O)c1c(-c2ccc(F)cc2)c(-c2ccncc2)c(NCCNC(=O)OC(C)(C)C)n1C | 
1.48 µM | CNC(=O)c1c(-c2ccc(F)cc2)c(-c2ccncc2)cn1C | 
0.901 µM | CCCN1CCN(c2c(-c3ccncc3)c(-c3ccc(F)cc3)c(C(=O)OC)n2C)CC1 | 
7.75 µM | CCN1CCCC1CNc1c(-c2ccncc2)c(-c2ccc(F)cc2)c(C(=O)OC)n1C (stereo not drawn) | 
0.692 µM | COC(=O)c1c(-c2ccc(F)cc2)c(-c2ccncc2)cn1CCO | 
0.038 µM | COC(=O)c1c(-c2ccc(F)cc2)c(-c2ccncc2)c(N(C)CCN2CCOCC2)n1C | 
0.186 µM | CCOC(=O)c1c(-c2ccc(F)cc2)c(-c2ccncc2)c(CCCO)n1C | 
1.69 µM | COC(=O)c1c(-c2ccc(F)cc2)c(-c2ccncc2)c(NCCNC(C)=O)n1C | 
0.208 µM | COC(=O)c1c(-c2ccc(F)cc2)c(-c2ccncc2)c2n1CCC2C (stereo not drawn) | 
0.125 µM | CCOC(=O)c1c(-c2ccc(F)cc2)c(-c2ccncc2)cn1C | 
